Reference: PMC6839601, “Discovery of selective, antimetastatic and anti-cancer stem cell metallohelices via post-assembly modification” (Chemical Science, 2019)

Assays:
HMF (breast) = assay: Antiproliferative activity (MTT assay), HMF; type: cell-based; conditions: cells treated for 96 h, mean ± SD, read-out: Cell viability IC50, HMF (breast)
Excerpt: (§1) The human ovarian carcinoma cisplatin-sensitive A2780 cells, cisplatin-resistant A2780cisR (a cisplatin-resistant variant of A2780 cells), human cervical carcinoma HeLa cells, human breast cancer MCF-7 cells and human colorectal carcinoma cells HCT-116 (for experiments performed at the Czech Academy of Sciences) were kindly supplied by Professor B. Keppler, University of Vienna (Austria). Human colon carcinoma cells expressing p53 (HCT116 p53^+/+) were a kind gift of Dr M. Brazdova, Institute of Biophysics, Brno (Czech Republic). […] These solutions were removed, dimethyl sulfoxide was added to each well, and the absorbance at 540 nm was read using a Thermo Scientific Multiskan EX microplate photometer. The IC50 values were determined from a plot of percentage cell survival against drug concentration (in μM). All assays were conducted in triplicate and the mean IC50 ± standard deviation was determined. page 43: 8. […] Cell survival was determined as the absorbance of treated cells minus the blank cell media, divided by the absorbance of the untreated control; this value was expressed as a percentage. The IC50 values were determined from a plot of percentage cell survival against drug concentration (µM). All assays were conducted in triplicate and the mean IC50 ± standard deviation was determined. […]

[1] = system: ARPE-19 (non-cancerous) cells; assay: Antiproliferative activity (MTT assay), ARPE-19; type: cell-based, human; conditions: cells treated for 96 h, mean ± SD, read-out: Cell viability IC50, ARPE-19 (retinal)
Excerpt: as §1

MRC-5 pd30 (lung) = assay: Antiproliferative activity (MTT assay), MRC-5 pd30; type: cell-based, human; conditions: 72 h, mean ± SD, read-out: Cell viability IC50, MRC-5 pd30 (lung)
Excerpt: as §1

WI-38 (lung) = assay: Antiproliferative activity (MTT assay), WI-38; type: cell-based; conditions: cells treated for 96 h, mean ± SD, read-out: Cell viability IC50, WI-38 (lung)
Excerpt: as §1

[2] = system: HCT116 p53+/+ colon cancer cells; assay: Antiproliferative activity (MTT assay), HCT116 p53+/+; type: cell-based, human; conditions: cells treated for 96 h, mean ± SD, read-out: Cell viability IC50, HCT116 p53+/+ (colon)
Excerpt: as §1

A2780cisR (ovarian) = assay: Antiproliferative activity (MTT assay), A2780cisR; type: cell-based, human; conditions: 72 h, mean ± SD, read-out: Cell viability IC50, A2780cisR (ovarian)
Excerpt: as §1

HCT116 p53-/- (colon) = assay: Antiproliferative activity (MTT assay), HCT116 p53-/-; type: cell-based, human
Excerpt: as §1

N.N.[Cl][Pt][Cl] [Cisplatin, cisplatin]
IC50 (HMF (breast)): 18 ± 2 µM
IC50 [1]: 6.4 ± 1 µM
IC50 (MRC-5 pd30 (lung)): 12 ± 1 µM
IC50 (WI-38 (lung)): 2.2 ± 0.8 µM
IC50 [2]: 3.3 ± 0.4 µM
IC50 (A2780cisR (ovarian)): 20 ± 3 µM
loss of activity towards HCT116 p53-/- cells relative to p53+/+ isogenic clones (HCT116 p53-/- (colon); HCT116 p53-/- vs p53+/+ (Table 1)): > 2 fold
IC50 (HCT116 p53-/- (colon); MTT, cells treated for 96 h, mean ± SD, read-out: Cell viability IC50, HCT116 p53-/- (colon)): 7.5 ± 0.7 µM
